Measurements reported in patent US7202244B2, “Chk-1 inhibitors” (Millennium Pharmaceuticals, Inc., priority 2002, dated 2007).

Experiments:
[1] = target: T1, GST-Chk1 (recombinant human Chk1) (Homo sapiens, UniProt O14757); assay: Chk1 FlashPlate kinase assay; type: biochemical; details: 1 uM ATP
T1 construct: made in house; host or cells: insect cells (Bac-to-Bac baculovirus system)
T1 sequence (O14757 1-476): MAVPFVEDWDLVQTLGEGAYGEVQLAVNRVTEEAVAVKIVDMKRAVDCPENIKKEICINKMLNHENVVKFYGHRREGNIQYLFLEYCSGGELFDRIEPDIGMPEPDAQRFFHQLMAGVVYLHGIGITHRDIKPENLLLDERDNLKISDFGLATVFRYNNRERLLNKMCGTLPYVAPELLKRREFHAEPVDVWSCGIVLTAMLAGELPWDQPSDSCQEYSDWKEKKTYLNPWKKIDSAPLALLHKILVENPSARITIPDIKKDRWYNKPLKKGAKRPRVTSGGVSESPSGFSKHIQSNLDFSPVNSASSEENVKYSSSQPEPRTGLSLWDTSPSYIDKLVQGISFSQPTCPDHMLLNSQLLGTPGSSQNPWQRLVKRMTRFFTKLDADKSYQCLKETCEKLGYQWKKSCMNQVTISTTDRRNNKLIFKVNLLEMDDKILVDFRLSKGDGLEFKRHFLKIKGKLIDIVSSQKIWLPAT
Description: Recombinant human Chk1 was expressed as a fusion protein with glutathione S-transferase at the amino-terminus (GST-Chk1) using standard baculovirus vectors and (Bac-to-Bac®) insect cell expression system purchased from GIBCO™ Invitrogen. Recombinant protein expressed in insect cells was purified using glutathione sepharose (Amersham Biotech) using standard procedures described by the manufacturer.
Chk1 FlashPlate® Kinase Assay:
Reactions were incubated for 30 minutes at room temperature, terminated with 50 ul of 50 mM EDTA and 90 ul were transferred to streptavidin-coated FlashPlates® (NEN) and incubated for 1 hour at room temperature. Plates were washed with phosphate buffered salaine containing 0.01% Tween-20 and 10 mM sodium pyrophosphate. Plates were dried, sealed with Topseal™ (NEN) and amount of ^33P incorporated into the peptide substate measure using a Packard Topcount® NXT™ scintillation counter with standard settings.
Compounds of the present invention were tested in the Chk1 FlashPlate® kinase assay described above.

[2] = target: T2, CHK-1 (Homo sapiens, UniProt O14757); assay: IC50 for the test compound versus CHK-1 (Table 2, assay format not stated); type: biochemical
T2 sequence (O14757 1-476): T1 sequence (O14757 1-476)

[3] = test system: HT29, HCT116 or other cells; assay: WST assay: enhancement of cell killing by DNA damaging agents; type: cell-based; details: shift of 1 = no shift; for Shift 156 nM: Chk1 inhibitor fixed at 156 nM with DNA damaging agent titration; for Shift 313 nM: Chk1 inhibitor fixed at 313 nM with DNA damaging agent titration; for Shift 625 nM: Chk1 inhibitor fixed at 625 nM with DNA damaging agent titration; for Shift 1.25 μM: Chk1 inhibitor fixed at 1.25 μM with DNA damaging agent titration; for Shift 2.5 μM: Chk1 inhibitor fixed at 2.5 μM with DNA damaging agent titration; for Shift 78 nM: Chk1 inhibitor fixed at 78 nM with DNA damaging agent titration
Description: HT29, HCT116 (5000 cells/well) or other cells were seeded (75 ul) to 96 well clear bottom plates at densities which provide linear growth curves for 72 hours. Cells were cultured under sterile conditions in appropriate media and for HT29 & HCT116 this media was McCoy's 5A containing 10% Fetal Bovine Serum (FBS). Following the initial seeding of cells they are incubated at 37° C., 5% CO2 from 17 to 24 hours at which time the appropriate DNA damaging agents (camptothecins, 5-fluorouracil and etoposid) are added at increasing concentrations to a point which is capable of causing at least 80% cell killing with in 48 hours. Final volume of all DNA damaging agent & compound additions was 25 ul and assays contained <1% DMSO final. At the same time as DNA Damaging agent addition, Chk1 inhibitor was added at fixed concentrations to each DNA damaging agent titration to observe enhancement of cell killing. In addition, toxicity of each Chk1 inhibitor alone was observed. By doing this over a range of Chk1 inhibitor concentrations we were able to identify compounds which maximally enhance (2–30 fold) cell killing by each DNA damaging agent and generated ≦80% cell killing by the compound alone. Cell viability/cell killing under the conditions described above was determined by addition WST reagent (Roche) according to the manufacturer at 47 hours following DNA damage & Chk1 inhibitor addition and following a 3.5 hour or 2.5 hour incubation at 37 C, 5% CO2, OD450 was measured.

COc1ccc(Cl)c(NC(=O)Nc2cnccn2)c1 [Example 15, 1-(2-Chloro-5-methoxy-phenyl)-3-pyrazin-2-yl-urea]
IC50 [1]: < 1000 nM

COc1ccc(Cl)cc1NC(=O)Nc1ccncn1 [Example 16, 1-(5-Chloro-2-methoxy-phenyl)-3-pyrimidin-4-yl-urea]
IC50 [1]: < 20000 nM

O=C(Nc1cccc(Cl)c1)Nc1cnccn1 [Example 19, 1-(3-Chloro-phenyl)-3-pyrazin-2-yl-urea]
IC50 [1]: < 20000 nM

CN(C)CCCOc1ccc(Cl)cc1NC(=O)Nc1cnccn1 [Example 1, 1-[5-Chloro-2-(3-dimethylamino-propoxy)-phenyl]-3-pyrazin-2-yl-urea]
IC50 [1]: < 100 nM | IC50 [2]: 3.5 nM | Shift 156 nM [3]: 1 | Shift 313 nM [3]: 1.2 | Shift 625 nM [3]: 1.6 | Shift 1.25 μM [3]: 2.2 | Shift 2.5 μM [3]: 3.4

CC(C)CCOc1ccc(Cl)cc1NC(=O)Nc1cnccn1 [Example 7, 1-[5-Chloro-2-(3-methyl-butoxy)-phenyl]-3-pyrazin-2-yl-urea]
IC50 [1]: < 1000 nM

COc1cc(Cl)c(C)cc1NC(=O)Nc1cnccn1 [Compound 46]
IC50 [1]: < 1000 nM

COc1ccc(C)cc1NC(=O)Nc1cnccn1 [Example 8, 1-(2-Methoxy-5-methyl-phenyl)-3-pyrazin-2-yl-urea]
IC50 [1]: < 1000 nM

NCCOc1ccc(Cl)cc1NC(=O)Nc1cnccn1 [Example 32, 1-[2-(2-Amino-ethoxy)-5-chloro-phenyl]-3-pyrazin-2-yl-urea]
IC50 [2]: 16 nM | Shift 1.25 μM [3]: 1.2 | Shift 2.5 μM [3]: 1.4

COc1ccccc1NC(=O)Nc1cnccn1 [Example 17, 1-(2-Methoxy-phenyl)-3-pyrazin-2-yl-urea]
IC50 [1]: < 20000 nM

COc1ccc(NC(C)=O)cc1NC(=O)Nc1cnccn1 [Example 11, N-[4-Methoxy-3-(3-pyrazin-2-yl-ureido)-phenyl]-acetamide]
IC50 [1]: < 1000 nM

NCCCOc1ccc(Cl)cc1NC(=O)Nc1cnc2ccccc2n1 [Example 31, 1-[2-(3-Amino-propoxy)-5-chloro-phenyl]-3-quinoxalin-2-yl-urea]
IC50 [2]: 5 nM | Shift 156 nM [3]: 1.3 | Shift 313 nM [3]: 1.8 | Shift 625 nM [3]: 2.8 | Shift 1.25 μM [3]: 4.4 | Shift 2.5 μM [3]: 6.2

O=C(Nc1ccc2c(c1)OCO2)Nc1cnccn1 [Example 24, 1-Benzo[1,3]dioxol-5-yl-3-pyrazin-2-yl-urea]
IC50 [1]: < 20000 nM

N#Cc1ccc(NC(=O)Nc2cc(Cl)ccc2OCCCN)nc1 [Compound 111]
IC50 [1]: < 100 nM

Cc1cnc(NC(=O)Nc2cc(Cl)ccc2OCC(C)(C)CN)cn1 [Compound 109]
IC50 [1]: < 100 nM

Cc1cnc(NC(=O)Nc2cc(Cl)ccc2OCCCN(C)C)cn1 [Example 25, 1-[5-Chloro-2-(3-dimethylamino-propoxy)-phenyl]-3-(5-methyl-pyrazin-2-yl)-urea]
IC50 [1]: < 100 nM | IC50 [2]: 4.5 nM | Shift 156 nM [3]: 1.1 | Shift 313 nM [3]: 1.7 | Shift 625 nM [3]: 2.5 | Shift 1.25 μM [3]: 3.3 | Shift 2.5 μM [3]: 4.4

COc1ccc(C(F)(F)F)cc1NC(=O)Nc1cnccn1 [Example 13, 1-(2-Methoxy-5-trifluoromethyl-phenyl)-3-pyrazin-2-yl-urea]
IC50 [1]: < 1000 nM

NCCCOc1ccc(Cl)cc1NC(=O)Nc1cnccn1 [Example 29, 1-[2-(3-Amino-propoxy)-5-chloro-phenyl]-3-pyrazin-2-yl-urea]
IC50 [2]: 2.5 nM | Shift 78 nM [3]: 2.5 | Shift 156 nM [3]: 3.1 | Shift 313 nM [3]: 4.5 | Shift 625 nM [3]: 5.0 | Shift 1.25 μM [3]: toxic | Shift 2.5 μM [3]: toxic

Cc1cnc(NC(=O)Nc2cc(Cl)ccc2OCCCNC2CCC2)cn1 [Compound 112]
IC50 [1]: < 100 nM

O=C(Nc1cnccn1)Nc1ccccc1OC(F)(F)F [Example 9, 1-Pyrazin-2-yl-3-(2-trifluoromethoxy-phenyl)-urea]
IC50 [1]: < 1000 nM

Cc1cnc(NC(=O)Nc2cc(Cl)ccc2OCCCCN)cn1 [Example 33, 1-[2-(4-Amino-butoxy)-5-chloro-phenyl]-3-(5-methyl-pyrazin-2-yl)-urea]
IC50 [2]: 3 nM | Shift 78 nM [3]: 1.8 | Shift 156 nM [3]: 2.4 | Shift 313 nM [3]: 2.7 | Shift 625 nM [3]: 3.1

COc1ccc(Cl)cc1NC(=O)Nc1cnccn1 [Example 6, 1-(5-Chloro-2-methoxy-phenyl)-3-pyrazin-2-yl-urea]
IC50 [1]: < 1000 nM

COc1ccc(NC(=O)Nc2cnccn2)c(OC)c1 [Example 14, 1-(2,4-Dimethoxy-phenyl)-3-pyrazin-2-yl-urea]
IC50 [1]: < 1000 nM

COc1ccc(NC(=O)Nc2cnccn2)cc1Cl [Example 18, 1-(3-Chloro-4-methoxy-phenyl)-3-pyrazin-2-yl-urea]
IC50 [1]: < 20000 nM

Cc1cnc(NC(=O)Nc2cc(Cl)ccc2OCCN(C)C)cn1 [Example 3, 1-[5-Chloro-2-(2-dimethylamino-ethoxy)-phenyl]-3-(5-methyl-pyrazin-2-yl)-urea]
IC50 [1]: < 100 nM

COc1cncc(NC(=O)Nc2cc(Cl)ccc2OCCCN)n1 [Example 34]
IC50 [2]: 20 nM | Shift 1.25 μM [3]: 2.4 | Shift 2.5 μM [3]: 3.031

NCCCOc1ccc(Cl)cc1NC(=O)Nc1ccc(C(N)=O)cn1 [Compound 110]
IC50 [1]: < 100 nM

O=C(Nc1ccc(N2CCCCC2)cc1)Nc1cnccn1 [Example 21, 1-(4-Piperidin-1-yl-phenyl)-3-pyrazin-2-yl-urea]
IC50 [1]: < 20000 nM

COC(=O)c1ccc(OC)c(NC(=O)Nc2cnccn2)c1 [Example 12, 4-Methoxy-3-(3-pyrazin-2-yl-ureido)-benzoic acid methyl ester]
IC50 [1]: < 1000 nM

Cc1cnc(NC(=O)Nc2cc(Cl)ccc2OCCCN)cn1 [Example 28]
IC50 [2]: 4 nM | Shift 78 nM [3]: 2.7 | Shift 156 nM [3]: 3.4 | Shift 313 nM [3]: 5.3 | Shift 625 nM [3]: 6.8 | Shift 1.25 μM [3]: toxic | Shift 2.5 μM [3]: toxic

Cc1ccc(OCCCN(C)C)c(NC(=O)Nc2cnccn2)c1 [Example 35, 1-[5-Methyl-2-(3-dimethylamino-propoxy)-phenyl]-3-pyrazin-2-yl-urea]
IC50 [2]: 16 nM | Shift 1.25 μM [3]: 2.1 | Shift 2.5 μM [3]: 2.9

O=C(Nc1cnccn1)Nc1cc(Cl)ccc1OCCN1CC1 [Example 26, 1-[2-(2-Aziridin-1-yl-ethoxy)-5-chloro-phenyl]-3-pyrazin-2-yl-urea]
IC50 [1]: < 1000 nM

CN(C)CCCOc1ccc(Cl)cc1NC(=O)Nc1cnc2ccccc2n1 [Example 30, 1-[5-Chloro-2-(3-dimethylamino-propoxy)-phenyl]-3-quinoxalin-2-yl-urea]
IC50 [2]: 19 nM | Shift 1.25 μM [3]: 1 | Shift 2.5 μM [3]: 1.4

O=C(Nc1cnccn1)Nc1cc(Cl)ccc1OCCN1CCOCC1 [Example 5, 1-[5-Chloro-2-(2-morpholin-4-yl-ethoxy)-phenyl]-3-pyrazin-2-yl-urea]
IC50 [1]: < 1000 nM

Cc1ccc(Cl)cc1NC(=O)Nc1cnccn1 [Example 10, 1-(5-Chloro-2-methyl-phenyl)-3-pyrazin-2-yl-urea]
IC50 [1]: < 1000 nM

O=C(Nc1cnccn1)Nc1cnccn1 [Example 23, 1,3-Di-pyrazin-2-yl-urea]
IC50 [1]: < 20000 nM

O=C(Nc1cnccn1)Nc1cc(Cl)ccc1OCc1cccnc1 [Example 27, 1-[5-Chloro-2-(pyridin-3-ylmethoxy)-phenyl]-3-pyrazin-2-yl-urea]
IC50 [1]: < 1000 nM
